Common to all, as to assay: Determination of Minimum Inhibitory Concentrations (MIC), agar dilution
Assay type in all cases: cell-based
On the technique in general: In agar dilution the substance is mixed into plates at graded concentrations.

Experiment [1] deals with E. cloacae 1051E. The note with it: Enterobacter cloacae, clinical isolate, Oxoid No.1 Nutrient agar, approximately 10^5 colony forming units, read after 18 hours at 37°C. The source says:
(§1) Biological testing of two of the compounds of the invention has provided the results shown below; the test compounds are identified by their Example Numbers: 1. Determination of Minimum Inhibitory Concentrations (MIC) Serial two-fold dilutions of freshly prepared test solutions were made into Oxoid No.l Nutrient agar with or without added enrichment and poured into petri […] Plates were inoculated with a multipoint inoculator with inoculum containing approximately 10^5 colony forming units of the organisms shown in the following Tables, all of which organisms are clinical isolates. The MIC, quoted in the Table as μg/ml, was read after 18 hours incubation at 37°C as the lowest concentration which inhibited growth.

In experiment [2] the test system is E. cloacae 1321E. The note with it: Enterobacter cloacae, clinical isolate, Oxoid No.1 Nutrient agar, approximately 10^5 colony forming units, read after 18 hours at 37°C.
Source text: as §1

The test system of experiment [3] is E. coli 851E. The note with it: Escherichia coli, clinical isolate, Oxoid No.1 Nutrient agar, approximately 10^5 colony forming units, read after 18 hours at 37°C.
Source text: as §1

Experiment [4] concerns H. influenzae 1184E. To be noted: Haemophilus influenzae, clinical isolate, Oxoid No.1 Nutrient agar, approximately 10^5 colony forming units, read after 18 hours at 37°C.
Source text: as §1

Experiment [5] deals with K. aerogenes 1522E. To be noted: Klebsiella aerogenes, clinical isolate, Oxoid No.1 Nutrient agar, approximately 10^5 colony forming units, read after 18 hours at 37°C.
Source text: as §1

For experiment [6], the system named is Micrococcus Sp 1810E. The note with it: SP1810E, clinical isolate, Oxoid No.1 Nutrient agar, approximately 10^5 colony forming units, read after 18 hours at 37°C.
Source text: as §1

Experiment [7] deals with S. marcescens 1324E. The note with it: Serratia marcescens, clinical isolate, Oxoid No.1 Nutrient agar, approximately 10^5 colony forming units, read after 18 hours at 37°C.
Source text: as §1

Experiment [8] has as its system Staph.aureus 853E. To be noted: Staphylococcus aureus, clinical isolate, Oxoid No.1 Nutrient agar, approximately 10^5 colony forming units, read after 18 hours at 37°C.
Source text: as §1

Converted amounts (≈) assume the structure as drawn.

For the compound `NCCCC1=C(C(=O)O)N2C(=O)CC2S1` (racemic) [Example 19, (5RS)-2-[3-Aminopropyl]-pen-2-em-3-carboxylate], the MIC in experiment [1] was 16 µg/mL (≈ 70.1 µM); in experiment [2], 8 µg/mL (≈ 35 µM); in experiment [3], 8 µg/mL (≈ 35 µM); in experiment [4], 16 µg/mL (≈ 70.1 µM); in experiment [5] it was 16 µg/mL (≈ 70.1 µM); in experiment [6] it was 0.1 µg/mL (≈ 0.438 µM). Moreover, the MIC in experiment [7] was found to be 31 µg/mL (≈ 136 µM); in experiment [8] it was 0.5 µg/mL (≈ 2.19 µM).

Turning to `NCCC1=C(C(=O)O)N2C(=O)CC2S1` (racemic) [Example 4, (5RS)-2-(2-Aminoethyl)pen-2-em-3-carboxylic acid], the MIC in experiment [1] stood at 8 µg/mL (≈ 37.3 µM); in experiment [2], 8 µg/mL (≈ 37.3 µM); in experiment [3], 8 µg/mL (≈ 37.3 µM); in experiment [4], 62 µg/mL (≈ 289 µM); in experiment [5], 16 µg/mL (≈ 74.7 µM); in experiment [6] it was 0.2 µg/mL (≈ 0.934 µM). In addition, the values for the MIC in experiment [7] and in experiment [8] were 31 µg/mL (≈ 145 µM) and 1 µg/mL (≈ 4.67 µM), respectively.

(Values after patent EP0003415A2, “Beta-Lactam compounds, processes for their preparation,compositions containing them and intermediates of use in their preparation” (GLAXO GROUP LIMITED, priority 1978, dated 1979).)
